Measured values taken from ChEMBL document CHEMBL5257042, “Highly Oxidized Ecdysteroids from a Commercial Cyanotis arachnoidea Root Extract as Potent Blood-Brain Barrier Protective Agents” (J Nat Prod, 2023).
Active and inactive are the calls of the source. The calls are words filed in the database; no cut-off is given here.

Assays:
hCMEC/D3 [1] = assay: Cytoprotective activity against IL-1beta-induced cellular damage in human CMEC/D3 cells assessed as increase in cell impedance at 1 uM incubated for 4 hrs by RTCA assay; assay type: functional, cell-based
[2] = Cytotoxicity against human CMEC/D3 cells assessed as increase in cell impedance at 1 uM incubated for 4 hrs by RTCA assay; assay type: toxicity, cell-based; settings: hcmec/d3, 4 h
[3] = Cytotoxicity against human CMEC/D3 cells assessed as decrease in cell impedance at 10 uM incubated for 4 hrs by RTCA assay; assay type: toxicity, cell-based; settings: hcmec/d3, 4 h
hCMEC/D3 [4] = assay: Cytoprotective activity against tBHP-induced oxidative damage in human CMEC/D3 cells at 1 uM incubated for 4 hrs by RTCA assay; assay type: functional, cell-based
hCMEC/D3 [5] = assay: Cytoprotective activity against TNFalpha-induced cellular damage in human CMEC/D3 cells assessed as increase in cell impedance at 1 uM incubated for 4 hrs by RTCA assay; assay type: functional, cell-based

Structure (SMILES) | Activity (hCMEC/D3 [1]) | Activity [2] | Activity [3] | Activity (hCMEC/D3 [4]) | Activity (hCMEC/D3 [5])
CC(C)(O)CC[C@@H](O)[C@](C)(O)[C@H]1C[C@H](O)C2=C3C(=O)C(O)=C4C[C@@H](O)[C@@H](O)C[C@]4(C)[C@@]3(O)CC[C@@]21C | Active | Non-Toxic | Non-Toxic | Active | Active
CC(C)(O)CCC(=O)[C@](C)(O)[C@H]1CC(=O)C2=C3C(=O)C(O)=C4C[C@@H](O)[C@@H](O)C[C@]4(C)C3=CC[C@@]21C | Active | Non-Toxic | Non-Toxic | Active | Active
CC(C)(O)CC[C@H]1O[C@H]2C(=O)[C@@H]3C4=C(CC[C@]3(C)[C@H]2[C@@]1(C)O)[C@@]1(C)C[C@H](O)[C@H](O)CC1=C(O)C4=O | Active | Non-Toxic | Toxic | Active | Active
